# Results from patent publication US20260183311A1, “COMPOUNDS DERIVED FROM STEROLS FOR THE TREATMENT OF A DISEASE ASSOCIATED WITH A MITOCHONDRIAL DEFICIT” (DENDROGENIX, priority 2022, published 2026).
# “Also recorded” adds a separate entry of the source.
# Experiments:
# Neuro-2a cells [1] = assay: Test of relative metabolic activity (MTT) on Neuro-2a cells under normal conditions; format: cell-based, mouse; conditions: physiological conditions; 24 h; two concentrations; FIG. 2A
# Description: (§1) A test based on the metabolic activity of the neurons was performed to evaluate the effect of the compounds of formula (I) on this metabolic activity. This test is based on the use of the tetrazolium salt MTT (3-(4,5-dimethylthiazol-2-yl)-2,5-diphenyltetrazolium bromide). Tetrazolium is reduced by mitochondrial succinate dehydrogenase in active live cells to formazan, a purple-colored precipitate. The amount of precipitate formed is proportional to the metabolic activity present in the culture. Thus, spectroscopic assay of the optical density at 550 nm makes it possible to determine the relative amount of metabolic activity and consequently the mitochondrial activity. This test on cortical neuron cultures was performed with different compounds in reference to Table 2 (DX101, DX243, DX244, DX245, DX249, DX301, DX302 and DX401) used at the same concentration (100 nM).
# The same test described in Example 1 was performed on Neuro-2a cells—a mouse neuroblastoma cell line. Under physiological conditions, once cultured and at about 50% confluence, Neuro-2a cells were placed in contact for 24 h with two concentrations of the compounds DX243 and DX245.
# Neuro-2a cells [2] = assay: Test of metabolic activity (MTT) on Neuro-2a cells after ethanol (EtOH) intoxication; format: cell-based, mouse; conditions: for metabolic activity after EtOH intoxication relative to untreated cells (MTT): 24 h treatment with 100 nM, EtOH 200 mM and 500 mM, FIG. 2B
# Description: as §1
# The same test described in Example 1 was performed on Neuro-2a cells—a mouse neuroblastoma cell line. It was shown that 24 h of intoxication with ethanol (EtOH) at high concentration (500 mM) in this cell line reduced the metabolic activity of these cells (χ=P value <0.0001 relative to the control).
# [3] = system: mitochondrial fission gene drp1; assay: Inhibition of mitochondrial fission on cochlear explants (qRT-PCR); format: cell-based, mice; conditions: 100 nM; 24 h; relative to untreated cochleae; FIG. 4
# Description: A cochlear explant model was developed. To obtain cochleae, the organ of hearing, in culture, cochleae from 3-day-old mice were microdissected. These cochleae were then placed in DMEM medium with addition of glucose (0.5%), N1 (0.5%), insulin (0.25%) and penicillin (0.1%), for 24 h. 100 nM of the compound DX243 were then added to this culture medium for 24 h. The cochleae were then recovered and the RNA extracted therefrom, so as to be able to analyze the modulation of several genes following treatment with the compound DX243.
# SHSY5y = assay: Test of mitochondrial dynamics (Mitotracker labeling) on SHSY5Y cell line; format: cell-based, human; conditions: 24 h, different concentrations, FIG. 3
# Description: (§2) A human neuroblastoma cell line (SHSY5y) and also a myoblast cell line (C2C12) were cultured in DMEM™ medium (Ref. 21068028 ThermoFisher Scientific). Once in culture, these two cell lines were treated for 24 h with different concentrations of the compound DX243. A series of images was taken, labeling with Mitotracker™ (Ref. M7512, ThermoFisher Scientific), which highlights and visualizes the mitochondria present in these cells, and enables quantification of their amount.
# Neuro-2a cells [4] = assay: MitoTracker study of mitochondria in Neuro-2a cells after ethanol intoxication; format: cell-based, mouse; conditions: after 24 h of ethanol intoxication (500 mm); FIG. 2C
# dopaminergic neurons [5] = assay: Mitochondrial dynamics (mitochondrial mass) in dopaminergic neurons treated with MPP+; format: cell-based, rat; conditions: MPP+ 48 h; different concentrations during MPP+ and 48 h after removal; FIG. 5
# Description: (§3) The mitochondrial effects of compound DX243 were tested in a model of dopaminergic neurons treated with MPP+ (1-methyl-4-phenylpyridinium), a mitochondrial toxin that increases mitochondrial stress and reduces the number of mitochondria. MPP+ is known for its deleterious effects on mitochondria (increased mitochondrial stress measured by the amount of cytochrome C, reduced mitochondrial number measured by means of the Mitotracker test). Dopaminergic neurons were obtained from microdissection of the midbrain of rat embryos cultured with Neurobasal™ Medium (Ref. 21103049 ThermoFisher Scientific) supplemented with B27 supplement 50× (Ref. 17504044 ThermoFisher Scientific), penicillin/streptomycin, L-glutamine and also BDNF (brain-derived neurotrophic factor) and GDNF (glial cell-derived neurotrophic factor).
# (§4) These neurons were cultured for 5 days and then treated for 48 h with MPP+. These neurons were also exposed to different concentrations of the compound DX243 during the 48 h of MPP+ treatment, and also 48 h after MPP+ removal.
# dopaminergic neurons [6] = assay: Mitochondrial stress in dopaminergic neurons treated with MPP+; format: cell-based, rat; conditions: 10 nM; FIG. 6
# Description: as §3, §4
# C2C12 = assay: Test of mitochondrial dynamics (Mitotracker labeling) on C2C12 cell line; format: cell-based; conditions: 24 h, different concentrations, FIG. 3
# Description: as §2
# hippocampal neurons = assay: Mitochondrial stress in hippocampal neurons treated with peptide Aβ 1-42; format: cell-based; conditions: 1 nM, FIG. 7
# Description: The mitochondrial effects of compound DX243 were tested in a model of hippocampal neurons treated with peptide Aβ 1-42, this peptide inducing mitochondrial stress (represented by a reduction in mitochondrial surface area).
Structure (SMILES),metabolic activity of Neuro-2a cells (MTT) (Neuro-2a cells [1]),metabolic activity after EtOH intoxication relative to untreated cells (MTT) (Neuro-2a cells [2]),expression of drp1 mRNA (qRT-PCR) [3],"mitochondrial amount (mass), Mitotracker labeling (SHSY5y)",mitochondrial surface area (MitoTracker) (Neuro-2a cells [4]),mitochondrial mass (dopaminergic neurons [5]),mitochondrial stress engendered by MPP+ treatment (dopaminergic neurons [6]),"mitochondrial amount (mass), Mitotracker labeling (C2C12)","metabolic activity after EtOH intoxication (MTT) (Neuro-2a cells [2]; 24 h EtOH 500 mM, 24 h treatment with 1 nM)",mitochondrial surface area (hippocampal neurons)
CC(C)CCCC(C)[C@H]1CCC2C3C[C@@H](NCCCCNCCCN)[C@@]4(O)C[C@@H](O)CC[C@]4(C)C3CC[C@@]21C (stereo partly drawn) [DX245],increase in the metabolic activity,significantly greater metabolic activity,,,,,,,,
"CC(C)CCC[C@@H](C)[C@H]1CC[C@H]2[C@@H]3C[C@@H](NCCCNCCCCN)[C@@]4(O)C[C@@H](O)CC[C@]4(C)[C@H]3CC[C@]12C [DX243, 5α-hydroxy-6β-[3-(4-aminobutylamino)propylamino]cholestan-3β-ol]",increase in the metabolic activity,significantly greater metabolic activity,reduction in drp1 mRNA; also recorded: inhibition of expression,increase in mitochondrial amount (mass),increase in mitochondrial surface area,increasing and restoring mitochondrial mass,reduction in mitochondrial stress,increase in mitochondrial amount (mass),partially recovered,restoring this decrease in mitochondrial surface area
